What was measured:
[1] = test system: barnyardgrass; assay: Test A pre-/postemergence greenhouse test; assay type: in vivo, Echinochloa crus-galli; settings: for Barnyardgrass plant response rating: 0 to 100 scale
In short: (§1)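 Pre: directed soil spray on seeded loam/sand. Post: foliar spray, plants 2–10 cm, 1–2 leaf stage, applied concurrently. Vehicle: non-phytotoxic solvent + surfactant. Greenhouse ~10 d; visual injury rating vs untreated controls.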

[2] = test system: crabgrass; assay: Test A pre-/postemergence greenhouse test; assay type: in vivo, Digitaria sanguinalis; settings: for Crabgrass, Large plant response rating: 0 to 100 scale
In short: as §1

[3] = test system: giant foxtail; assay: Test A pre-/postemergence greenhouse test; assay type: in vivo, Setaria faberi; settings: for Foxtail, Giant plant response rating: 0 to 100 scale
In short: as §1

[4] = test system: velvetleaf; assay: Test A pre-/postemergence greenhouse test; assay type: in vivo, Abutilon theophrasti; settings: for Velvetleaf plant response rating: 0 to 100 scale
In short: as §1

[5] = test system: blackgrass; assay: Test C pre-/postemergence test; assay type: in vivo, Alopecurus myosuroides
In short: (§2)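 Compounds in a non-phytotoxic solvent with surfactant applied preemergence to seeded pots and, at the same time, postemergence to plants 2–18 cm tall (1- to 4-leaf stage). Paddy tests: pots flooded to 3 cm, compound applied into the water, depth held throughout.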

[6] = test system: downy brome; assay: Test C pre-/postemergence test; assay type: in vivo, Bromus tectorum
In short: as §2

[7] = test system: green foxtail; assay: Test C pre-/postemergence test; assay type: in vivo, Setaria viridis
In short: as §2

[8] = test system: catchweed bedstraw; assay: Test C pre-/postemergence test; assay type: in vivo, Galium aparine
In short: as §2

[9] = test system: Surinam grass; assay: Test C pre-/postemergence test; assay type: in vivo, Brachiaria decumbens
In short: as §2

[10] = test system: woolly cupgrass; assay: Test C pre-/postemergence test; assay type: in vivo, Eriochloa villosa
In short: as §2

[11] = test system: lambsquarters; assay: Test C pre-/postemergence test; assay type: in vivo, Chenopodium album
In short: as §2

[12] = test system: pigweed; assay: Test C pre-/postemergence test; assay type: in vivo, Amaranthus retroflexus
In short: as §2

[13] = test system: common ragweed; assay: Test C pre-/postemergence test; assay type: in vivo, Ambrosia elation
In short: as §2

[14] = test system: soybean; assay: Test C pre-/postemergence test; assay type: in vivo, Glycine max
In short: as §2

[15] = test system: velvetleaf; assay: Test C pre-/postemergence test; assay type: in vivo, Abutilon theophrasti
In short: as §2

[16] = test system: duck salad; assay: Test C flooded paddy test; assay type: in vivo, Heteranthera limosa; settings: Flood
In short: (§3)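 Test compounds are applied straight into paddy water held 3 cm above the soil surface, with that flood maintained for the whole test. After 13 to 15 days in the greenhouse, each species is scored visually relative to controls.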

[17] = test system: barnyardgrass; assay: Test C flooded paddy test; assay type: in vivo, Echinochloa crus-galli; settings: Flood
In short: as §3

[18] = Postemergence, 125 g ai/ha, 0 is no effect, 100 is complete control
[19] = Postemergence, 500 g ai/ha, 0 is no effect, 100 is complete control
[20] = Preemergence, 125 g ai/ha, 0 no effect, 100 complete control
[21] = Preemergence, 500 g ai/ha, 0 to 100 scale where 0 is no effect and 100 is complete control
[22] = 62 g ai/ha, Preemergence, scale 0 to 100
[23] = 125 g ai/ha, preemergence, scale 0 (no effect) to 100 (complete control)
[24] = Preemergence, 31 g ai/ha, scale 0 to 100 (0 no effect, 100 complete control)
[25] = preemergence, 250 g ai/ha, scale 0 (no effect) to 100 (complete control)
[26] = 31 g ai/ha, scale 0 to 100 (0 no effect, 100 complete control)
[27] = 62 g ai/ha, scale 0 to 100, 0 no effect, 100 complete control, 13 to 15 days
[28] = 125 g ai/ha, scale 0 to 100, 0 no effect, 100 complete control, 13 to 15 days
[29] = 250 g ai/ha, scale 0 to 100, 0 no effect, 100 complete control, 13 to 15 days

In the case of Cn1nc(C(F)(F)F)c(C[S+]([O-])c2cc(F)cc[n+]2[O-])c1Cl (racemic) [Compound 42], the “Barnyardgrass plant response rating” value [1, 18] is reported as 70, the “Barnyardgrass plant response rating” value [1, 19] is reported as 80 and the “Barnyardgrass plant response rating” value [1, 20] is reported as 80. The “Plant response rating, Barnyardgrass” value [1, 21] was 100, the “Crabgrass, Large plant response rating” value [2, 18] was 80 and the “Crabgrass, Large plant response rating” value [2, 19] was 90. For the same compound, the “Crabgrass, Large plant response rating” value [2, 20] was 70, the “Plant response rating, Crabgrass, Large” value [2, 21] was 100 and the “Foxtail, Giant plant response rating” value [3, 18] was 80. The “Foxtail, Giant plant response rating” value [3, 19] was 90, the “Foxtail, Giant plant response rating” value [3, 20] was 100 and the “Plant response rating, Foxtail, Giant” value [3, 21] was 100. The “Velvetleaf plant response rating” value [4, 18] was 0, the “Velvetleaf plant response rating” value [4, 19] was 60 and the “Velvetleaf plant response rating” value [4, 20] was 10. The “Plant response rating, Velvetleaf” value [4, 21] was 80, the “Blackgrass plant response rating” value [5, 22] was 70 and the “Blackgrass plant response rating” value [5, 23] was 95. For the same compound, the “Plant response rating, Blackgrass” value [5, 24] was 70, the “Blackgrass plant response rating” value [5, 25] was 98 and the “Bromegrass, Downy plant response rating” value [6, 22] was 15. For the same compound, the “Bromegrass, Downy plant response rating” value [6, 23] was 45, the “Plant response rating, Bromegrass, Downy” value [6, 24] was 10 and the “Bromegrass, Downy plant response rating” value [6, 25] was 70. For the same compound, the “Foxtail, Green plant response rating” value [7, 22] was 100, the “Foxtail, Green plant response rating” value [7, 23] was 100 and the “Plant response rating, Foxtail, Green” value [7, 24] was 98. The “Foxtail, Green plant response rating” value [7, 25] was 100, the “Galium plant response rating” value [8, 22] was 50 and the “Galium plant response rating” value [8, 23] was 100. The “Plant response rating, Galium” value [8, 24] was 0, the “Galium plant response rating” value [8, 25] was 100 and the “Surinam Grass plant response rating” value [9, 22] was 80. The “Surinam Grass plant response rating” value [9, 23] was 85, the “Plant response rating, Surinam Grass” value [9, 24] was 60 and the “Surinam Grass plant response rating” value [9, 25] was 100. For the same compound, the “Cupgrass, Woolly plant response rating” value [10, 22] was 55, the “Cupgrass, Woolly plant response rating” value [10, 23] was 85 and the “Plant response rating, Cupgrass, Woolly” value [10, 24] was 35. The “Cupgrass, Woolly plant response rating” value [10, 25] was 90, the “Lambsquarters plant response rating” value [11, 22] was 100 and the “Lambsquarters plant response rating” value [11, 23] was 100. For the same compound, the “Plant response rating, Lambsquarters” value [11, 24] was 80, the “Lambsquarters plant response rating” value [11, 25] was 100 and the “Pigweed plant response rating” value [12, 22] was 100. For the same compound, the “Pigweed plant response rating” value [12, 23] was 100, the “Plant response rating, Pigweed” value [12, 24] was 100 and the “Pigweed plant response rating” value [12, 25] was 100. The “Ragweed plant response rating” value [13, 22] was 70, the “Ragweed plant response rating” value [13, 23] was 90 and the “Plant response rating, Ragweed” value [13, 24] was 5. For the same compound, the “Ragweed plant response rating” value [13, 25] was 90, the “Soybean plant response rating” value [14, 22] was 0 and the “Soybean plant response rating” value [14, 23] was 40. The “Plant response rating, Soybean” value [14, 24] was 0, the “Soybean plant response rating” value [14, 25] was 40 and the “Velvetleaf plant response rating” value [15, 22] was 60. For the same compound, the “Velvetleaf plant response rating” value [15, 23] was 70, the “Plant response rating, Velvetleaf” value [15, 24] was 0 and the “Velvetleaf plant response rating” value [15, 25] was 100. The “Plant response rating, Ducksalad” value [16, 26] was 70, the “Plant response rating, Ducksalad” value [16, 27] was 85 and the “Plant response rating, Ducksalad” value [16, 28] was 85. The “Plant response rating, Ducksalad” value [16, 29] was 90, the “Plant response rating, Barnyardgrass” value [17, 26] was 0 and the “Plant response rating, Barnyardgrass” value [17, 27] was 0. The “Plant response rating, Barnyardgrass” value [17, 28] was 40 and the “Plant response rating, Barnyardgrass” value [17, 29] was 55.

— patent US20100298141A1, “SUBSTITUTED PYRIDINE N-OXIDE HERBICIDES” (E. I. DU PONT DE NEMOURS AND COMPANY, priority 2007, published 2010)
